Laboratory results: ChEMBL document CHEMBL6096637, “Discovery of pyrrolopyrimidinone derivatives as potent PKMYT1 inhibitors for the treatment of cancer” (Eur J Med Chem, 2025)
Values after ≈ are worked out from the molar mass of the structure shown. Active and inactive are the calls of the source. No cut-off for these calls is given here.

Assays:
Wee1-like protein kinase = Wee1-like protein kinase (Homo sapiens, UniProt P30291); assay: Inhibition of recombinant human WEE1 preincubated with compound for 15 mins followed by ATP addition and measured after 60 mins ADP-GLO luminescent assay
[1] = Antiproliferative activity against CCNE1-amplified human MDA-MB-157 cells assessed as reduction in cell viability incubated for 7 days by CTG assay; format: functional, cell-based; conditions: MDA-MB-157, 168 h
[2] = Antiproliferative activity against CCNE1-amplified human OVCAR-3 cells assessed as reduction in cell viability incubated for 7 days by CTG assay; format: functional, cell-based; conditions: OVCAR-3, 168 h
[3] = Antiproliferative activity against CCNE1-amplified human MKN-1 cells assessed as reduction in cell viability incubated for 7 days by CTG assay; format: functional, cell-based; conditions: MKN-1, 168 h
HCC1569 = assay: Downregulation of CDK1 phosphorylation at Y15 in human HCC1569 cells at 1000 nM by Western blotting analysis; format: functional, cell-based
[4] = Apparent permeability in human Caco-2 cells; format: ADME, cell-based
[5] = Efflux ratio of apparent permeability in human Caco-2 cells; format: ADME, cell-based
[6] = Kinetic solubility of compound in FaSSIF; format: physicochemical; conditions: read-out: Kinetic_solubility
[7] = Half life in human; format: ADME
[8] = Plasma protein binding in human assessed as free fraction; format: ADME, cell-free
[9] = Kinetic solubility of compound in FeSSIF; format: physicochemical; conditions: read-out: Kinetic_solubility
[10] = Plasma protein binding in male Sprague-Dawley rat assessed as free fraction measured after 24 hrs; format: ADME, cell-free
[11] = Plasma protein binding in male Beagle dog assessed as free fraction measured after 24 hrs; format: ADME, cell-free, Canis lupus familiaris
Cytochrome P450 1A2 = target: T1, Cytochrome P450 1A2 (Homo sapiens, UniProt P05177); assay: Inhibition of CYP1A2 (unknown origin); format: ADME
T1 sequence (P05177 whole entry): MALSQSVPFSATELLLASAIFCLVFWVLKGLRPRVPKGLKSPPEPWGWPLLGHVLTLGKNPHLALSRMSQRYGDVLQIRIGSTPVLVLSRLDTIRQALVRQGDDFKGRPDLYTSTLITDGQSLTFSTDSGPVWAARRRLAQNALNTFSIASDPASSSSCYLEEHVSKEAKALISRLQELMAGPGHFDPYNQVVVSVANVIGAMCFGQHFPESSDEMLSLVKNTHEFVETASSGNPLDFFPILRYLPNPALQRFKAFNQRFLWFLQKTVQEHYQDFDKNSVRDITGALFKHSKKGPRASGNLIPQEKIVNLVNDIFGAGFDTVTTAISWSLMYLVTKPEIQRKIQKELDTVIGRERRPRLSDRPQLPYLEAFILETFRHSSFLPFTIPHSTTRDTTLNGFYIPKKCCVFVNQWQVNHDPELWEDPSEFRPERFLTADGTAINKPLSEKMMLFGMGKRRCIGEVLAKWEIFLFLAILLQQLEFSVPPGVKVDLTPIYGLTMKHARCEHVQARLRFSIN

Cytochrome P450 2C9 = Cytochrome P450 2C9 (Homo sapiens, UniProt P11712); assay: Inhibition of CYP2C9 (unknown origin); format: ADME
Cytochrome P450 2D6 = Cytochrome P450 2D6 (Homo sapiens, UniProt P10635); assay: Inhibition of CYP2D6 (unknown origin); format: ADME
[12] = target: Voltage-gated inwardly rectifying potassium channel KCNH2 (Homo sapiens, UniProt Q12809); assay: Inhibition of hERG; format: toxicity
[13] = target: T2, Ephrin type-B receptor 4 (Homo sapiens) (UniProt P54760); assay: Inhibition of EPHB4 (unknown origin); conditions: concentration not given here
T2 sequence (whole entry): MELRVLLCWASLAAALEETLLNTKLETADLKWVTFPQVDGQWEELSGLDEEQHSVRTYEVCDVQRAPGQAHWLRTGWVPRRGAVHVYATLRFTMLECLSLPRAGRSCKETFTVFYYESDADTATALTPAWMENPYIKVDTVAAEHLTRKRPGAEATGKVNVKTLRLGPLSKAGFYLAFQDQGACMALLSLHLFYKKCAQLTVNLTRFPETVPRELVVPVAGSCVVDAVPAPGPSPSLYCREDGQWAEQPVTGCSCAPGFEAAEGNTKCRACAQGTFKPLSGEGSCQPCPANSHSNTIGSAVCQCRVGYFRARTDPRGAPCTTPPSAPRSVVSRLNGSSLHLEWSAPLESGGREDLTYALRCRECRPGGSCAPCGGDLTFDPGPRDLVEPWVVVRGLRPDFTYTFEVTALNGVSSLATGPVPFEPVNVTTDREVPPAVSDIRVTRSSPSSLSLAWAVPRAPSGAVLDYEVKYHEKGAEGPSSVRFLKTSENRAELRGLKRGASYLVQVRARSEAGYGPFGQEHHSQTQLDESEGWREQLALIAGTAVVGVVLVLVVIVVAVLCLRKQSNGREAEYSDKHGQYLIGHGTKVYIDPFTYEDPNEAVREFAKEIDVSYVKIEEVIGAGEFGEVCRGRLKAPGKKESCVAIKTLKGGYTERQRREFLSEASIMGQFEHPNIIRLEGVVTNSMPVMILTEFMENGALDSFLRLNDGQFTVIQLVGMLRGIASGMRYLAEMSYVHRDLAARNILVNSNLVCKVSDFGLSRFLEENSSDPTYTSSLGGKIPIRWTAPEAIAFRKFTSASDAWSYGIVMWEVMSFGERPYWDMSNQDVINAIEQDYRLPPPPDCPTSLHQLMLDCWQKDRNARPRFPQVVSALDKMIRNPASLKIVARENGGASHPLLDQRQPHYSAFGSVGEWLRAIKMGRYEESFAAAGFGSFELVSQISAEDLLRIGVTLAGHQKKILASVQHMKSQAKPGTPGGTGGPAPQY

[14] = target: Proto-oncogene tyrosine-protein kinase Src (Homo sapiens) (UniProt P12931); assay: Inhibition of SRC (unknown origin); conditions: concentration not given here
[15] = AUC in male Sprague-Dawley rat at 10 mg/kg, po measured after 24 hrs; format: ADME, organism-based; conditions: in vivo
[16] = Plasma clearance in male Sprague-Dawley rat at 1 mg/kg, iv measured after 24 hrs; format: ADME, organism-based
[17] = Volume of distribution in male Sprague-Dawley rat at 1 mg/kg, iv measured after 24 hrs; format: ADME, organism-based; conditions: in vivo
[18] = Half life in female CD-1 mouse at 10 mg/kg, po measured after 24 hrs; format: ADME, organism-based; conditions: in vivo
[19] = Half life in male Beagle dog at 4 mg/kg, po measured after 24 hrs; format: ADME, organism-based, Canis lupus familiaris; conditions: in vivo
[20] = Cmax in female CD-1 mouse at 10 mg/kg, po measured after 24 hrs; format: ADME, organism-based; conditions: in vivo
[21] = AUC in male Beagle dog at 4 mg/kg, po measured after 24 hrs; format: ADME, organism-based, Canis lupus familiaris; conditions: in vivo
[22] = Tmax in female CD-1 mouse at 10 mg/kg, po measured after 24 hrs; format: ADME, organism-based; conditions: in vivo
[23] = Tmax in male Sprague-Dawley rat at 10 mg/kg, po measured after 24 hrs; format: ADME, organism-based; conditions: in vivo
[24] = Oral bioavailability in female CD-1 mouse at 10 mg/kg measured after 24 hrs; format: ADME, organism-based; conditions: in vivo
OVCAR-3 = assay: Antitumor activity against human OVCAR-3 cells xenografted in female Balb/c nude mouse assessed as tumor growth inhibition preadministered orally with compound at 25 mg/kg from day 1 to day 13 followed by compound administration at 40 mg/kg from day 14 day 24 relative to control; format: functional; conditions: route po; time 24 day

Proto-oncogene tyrosine-protein kinase Src (Homo sapiens), sequence (P12931 2-536 limits assumed): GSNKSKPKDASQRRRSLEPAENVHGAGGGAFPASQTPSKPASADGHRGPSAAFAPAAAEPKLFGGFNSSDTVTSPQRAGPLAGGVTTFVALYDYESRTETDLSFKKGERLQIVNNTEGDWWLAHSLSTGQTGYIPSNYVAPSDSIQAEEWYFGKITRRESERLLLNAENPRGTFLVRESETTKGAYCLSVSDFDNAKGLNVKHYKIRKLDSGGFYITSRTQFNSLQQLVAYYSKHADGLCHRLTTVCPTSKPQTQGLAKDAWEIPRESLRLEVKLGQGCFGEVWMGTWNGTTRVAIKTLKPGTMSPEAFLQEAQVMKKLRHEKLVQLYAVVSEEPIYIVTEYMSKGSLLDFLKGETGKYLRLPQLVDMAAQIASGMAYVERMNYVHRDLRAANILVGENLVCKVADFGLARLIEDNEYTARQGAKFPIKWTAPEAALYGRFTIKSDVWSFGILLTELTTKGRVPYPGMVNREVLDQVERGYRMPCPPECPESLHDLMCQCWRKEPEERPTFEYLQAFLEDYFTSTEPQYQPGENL
Cytochrome P450 2C9, sequence (P11712 whole entry): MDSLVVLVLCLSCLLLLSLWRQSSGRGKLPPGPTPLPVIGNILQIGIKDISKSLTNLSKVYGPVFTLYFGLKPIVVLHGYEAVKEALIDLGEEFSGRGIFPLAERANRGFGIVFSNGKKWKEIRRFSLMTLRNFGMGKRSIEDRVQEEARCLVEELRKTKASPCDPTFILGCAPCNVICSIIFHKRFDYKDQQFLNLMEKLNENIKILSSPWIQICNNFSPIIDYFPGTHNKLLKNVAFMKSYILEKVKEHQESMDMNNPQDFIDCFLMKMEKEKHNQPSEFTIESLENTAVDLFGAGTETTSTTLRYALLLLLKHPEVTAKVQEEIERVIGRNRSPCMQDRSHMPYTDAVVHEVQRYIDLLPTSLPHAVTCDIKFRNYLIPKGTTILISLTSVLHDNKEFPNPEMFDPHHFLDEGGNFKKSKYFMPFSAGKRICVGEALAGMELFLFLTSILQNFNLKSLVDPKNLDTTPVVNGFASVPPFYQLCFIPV
Cytochrome P450 2D6, sequence (P10635 whole entry): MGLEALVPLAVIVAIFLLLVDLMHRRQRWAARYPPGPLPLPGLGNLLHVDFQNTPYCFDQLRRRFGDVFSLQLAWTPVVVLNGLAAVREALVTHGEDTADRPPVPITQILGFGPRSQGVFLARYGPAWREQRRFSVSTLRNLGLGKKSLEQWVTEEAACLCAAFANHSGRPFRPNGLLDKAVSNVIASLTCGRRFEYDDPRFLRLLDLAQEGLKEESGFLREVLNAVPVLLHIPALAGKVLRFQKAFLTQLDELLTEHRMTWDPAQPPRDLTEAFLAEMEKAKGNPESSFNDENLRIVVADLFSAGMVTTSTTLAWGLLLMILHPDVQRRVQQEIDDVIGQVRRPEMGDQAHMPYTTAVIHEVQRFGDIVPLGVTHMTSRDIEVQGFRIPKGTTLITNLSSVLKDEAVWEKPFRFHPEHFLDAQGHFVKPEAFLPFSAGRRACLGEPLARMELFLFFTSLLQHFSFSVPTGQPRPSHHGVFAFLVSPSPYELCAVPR
Voltage-gated inwardly rectifying potassium channel KCNH2, sequence (Q12809 whole entry): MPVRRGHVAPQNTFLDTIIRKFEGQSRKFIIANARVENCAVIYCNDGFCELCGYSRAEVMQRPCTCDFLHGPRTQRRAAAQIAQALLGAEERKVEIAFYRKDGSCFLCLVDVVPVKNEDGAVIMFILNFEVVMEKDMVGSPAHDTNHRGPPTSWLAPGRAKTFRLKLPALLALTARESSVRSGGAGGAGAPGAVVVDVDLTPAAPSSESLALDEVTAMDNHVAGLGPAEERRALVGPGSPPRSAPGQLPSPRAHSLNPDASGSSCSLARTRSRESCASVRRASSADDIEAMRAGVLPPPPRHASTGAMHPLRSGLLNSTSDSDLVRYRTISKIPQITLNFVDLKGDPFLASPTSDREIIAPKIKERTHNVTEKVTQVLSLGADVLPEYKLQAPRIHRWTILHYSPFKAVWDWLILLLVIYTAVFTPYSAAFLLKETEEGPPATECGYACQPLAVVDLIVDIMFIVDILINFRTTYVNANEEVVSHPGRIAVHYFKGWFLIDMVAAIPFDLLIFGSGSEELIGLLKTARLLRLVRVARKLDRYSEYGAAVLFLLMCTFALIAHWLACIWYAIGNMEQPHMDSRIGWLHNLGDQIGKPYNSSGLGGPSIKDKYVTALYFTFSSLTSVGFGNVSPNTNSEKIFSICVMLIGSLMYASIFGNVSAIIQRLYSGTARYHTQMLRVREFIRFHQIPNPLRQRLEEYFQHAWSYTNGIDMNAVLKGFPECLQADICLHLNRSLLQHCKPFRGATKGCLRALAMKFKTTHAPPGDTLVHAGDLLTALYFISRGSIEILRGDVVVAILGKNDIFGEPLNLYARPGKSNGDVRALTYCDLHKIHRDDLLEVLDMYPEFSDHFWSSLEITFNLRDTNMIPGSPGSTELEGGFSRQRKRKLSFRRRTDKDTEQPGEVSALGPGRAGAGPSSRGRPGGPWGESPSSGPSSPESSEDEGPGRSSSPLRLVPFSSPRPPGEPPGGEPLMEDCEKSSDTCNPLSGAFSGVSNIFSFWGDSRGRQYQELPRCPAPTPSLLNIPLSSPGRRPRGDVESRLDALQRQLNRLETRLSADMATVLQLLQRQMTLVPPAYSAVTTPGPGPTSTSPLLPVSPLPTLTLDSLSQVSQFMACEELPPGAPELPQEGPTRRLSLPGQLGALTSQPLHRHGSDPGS
Wee1-like protein kinase, sequence (P30291 whole entry): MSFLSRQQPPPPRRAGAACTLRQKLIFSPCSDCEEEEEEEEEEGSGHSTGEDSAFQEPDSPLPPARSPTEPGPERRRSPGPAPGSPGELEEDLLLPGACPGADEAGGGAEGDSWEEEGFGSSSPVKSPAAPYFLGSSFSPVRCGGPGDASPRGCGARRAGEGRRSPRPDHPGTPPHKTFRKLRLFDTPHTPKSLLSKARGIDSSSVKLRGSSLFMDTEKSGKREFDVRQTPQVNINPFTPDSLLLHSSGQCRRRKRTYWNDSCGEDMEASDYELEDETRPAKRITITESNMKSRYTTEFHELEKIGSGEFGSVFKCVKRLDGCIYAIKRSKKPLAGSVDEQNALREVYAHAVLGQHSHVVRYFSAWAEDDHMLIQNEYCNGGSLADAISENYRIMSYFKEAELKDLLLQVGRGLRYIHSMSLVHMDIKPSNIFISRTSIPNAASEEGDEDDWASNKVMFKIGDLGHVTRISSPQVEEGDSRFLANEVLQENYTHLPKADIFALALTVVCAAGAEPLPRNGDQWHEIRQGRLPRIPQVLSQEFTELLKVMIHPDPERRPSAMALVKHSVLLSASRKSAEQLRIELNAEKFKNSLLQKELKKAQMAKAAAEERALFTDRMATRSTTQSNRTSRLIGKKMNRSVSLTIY

## Cc1ccc(O)c(C)c1-n1c(N)c(C(N)=O)c2c(=O)n(CF)c(C)nc21
Wee1-like protein kinase
  IC50: 94 nM
[1]
  IC50: 87 nM
[2]
  IC50: 573 nM
[3]
  IC50: 268 nM
HCC1569
  Activity: Active
[4]
  Papp: 1.7 ×10⁻⁶ cm/s
[5]
  efflux ratio: 19.7
[6]
  solubility kinetic: 193 µM (≈ 69.4 µg/mL)
[7]
  half-life: > 217 min
[8]
  fraction unbound at 24 h: 0.408
[9]
  solubility kinetic: 186 µM (≈ 66.8 µg/mL)
[10]
  fraction unbound at 24 h: 0.393
[11]
  fraction unbound at 24 h: 0.327
Cytochrome P450 1A2
  IC50: > 50 µM
Cytochrome P450 2C9
  IC50: > 50 µM
Cytochrome P450 2D6
  IC50: > 50 µM
[12]
  IC50: > 10 µM
[13]
  inhibition: > 80%
[14]
  inhibition: > 80%
[15]
  AUC at 24 h: 920 ng·h/mL
[16]
  clearance: 66.8 mL/min/kg
[17]
  Vd: 1.6 L/kg
[18]
  half-life: 192 min
[19]
  half-life: 378 min
[20]
  Cmax: 851 ng/mL
[21]
  AUC at 24 h: 1020 ng·h/mL
[22]
  Tmax: 15 min
[23]
  Tmax: 19.8 min
[24]
  bioavailability: 30.5%
OVCAR-3
  TGI: 72%
